Measurements reported in US20220104492A1, “PYRIDAZINIUM COMPOUNDS FOR USE IN A METHOD OF CONTROLLING UNWANTED PLANT GROWTH” (SYNGENTA CROP PROTECTION AG, priority 2019, published 2022).
Where a name gives a salt, the structure may show the parent alone.

Assays:
Assay in all cases: Post-emergence efficacy (glasshouse, spray application)
Assay type in all cases: in vivo
Eleusine indica (ELEIN) = settings: 312 h, Application rate 500 g/Ha, evaluated after 13 days, 100=total damage to plant, 0=no damage to plant, read-out: Control of weed species after post-emergence application, ELEIN
Method: (§1) Seeds of a variety of test species were sown in standard soil in pots. After cultivation for 14 days (post-emergence) under controlled conditions in a glasshouse (at 24/16° C., day/night; 14 hours light; 65 humidity), the plants were sprayed with an aqueous spray solution derived from the dissolution of the technical active ingredient formula (I) in a small amount of acetone and a special solvent and emulsifier mixture referred to as IF50 (11.12% Emulsogen EL360 TM+44.44% N-methylpyrrolidone+44.44% Dowanol DPM glycol ether), to create a 50 g/l solution which was then diluted to required concentration using a solution of 0.25% or 1% Empicol ESC70 (Sodium lauryl ether sulphate)+1% ammonium sulphate in water as diluent.
(§2) The test plants were then grown in a glasshouse under controlled conditions (at 24/16° C., day/night; 14 hours light; 65% humidity) and watered twice daily. After 13 days the test was evaluated (100=total damage to plant; 0=no damage to plant).
(§3) Ipomoea hederacea (IPOHE), Euphorbia heterophylla (EPHHL), Chenopodium album (CHEAL), Amaranthus palmeri (AMAPA), Lolium perenne (LOLPE), Digitaria sanguinalis (DIGSA), Eleusine indica (ELEIN), Echinochloa crus-galli (ECHCG), Setaria faberi (SETFA)

[1] = test system: Euphorbia heterophylla (EPHHL); settings: 312 h, Application rate 500 g/Ha, evaluated after 13 days, 100=total damage to plant, 0=no damage to plant, read-out: Control of weed species after post-emergence application, EPHHL
Method: as §1, §2, §3

Lolium perenne (LOLPE) = settings: 312 h, Application rate 500 g/Ha, evaluated after 13 days, 100=total damage to plant, 0=no damage to plant, read-out: Control of weed species after post-emergence application, LOLPE
Method: as §1, §2, §3

Setaria faberi (SETFA) = settings: 312 h, Application rate 500 g/Ha, evaluated after 13 days, 100=total damage to plant, 0=no damage to plant, read-out: Control of weed species after post-emergence application, SETFA
Method: as §1, §2, §3

[2] = test system: Digitaria sanguinalis (DIGSA); settings: 312 h, Application rate 500 g/Ha, evaluated after 13 days, 100=total damage to plant, 0=no damage to plant, read-out: Control of weed species after post-emergence application, DIGSA
Method: as §1, §2, §3

[3] = test system: Chenopodium album (CHEAL); settings: 312 h, Application rate 500 g/Ha, evaluated after 13 days, 100=total damage to plant, 0=no damage to plant, read-out: Control of weed species after post-emergence application, CHEAL
Method: as §1, §2, §3

[4] = test system: Ipomoea hederacea (IPOHE); settings: 312 h, Application rate 500 g/Ha, evaluated after 13 days, 100=total damage to plant, 0=no damage to plant, read-out: Control of weed species after post-emergence application, IPOHE
Method: as §1, §2, §3

[5] = test system: Echinochloa crus-galli (ECHCG); settings: 312 h, Application rate 500 g/Ha, evaluated after 13 days, 100=total damage to plant, 0=no damage to plant, read-out: Control of weed species after post-emergence application, ECHCG
Method: as §1, §2, §3

[6] = test system: Amaranthus palmeri (AMAPA); settings: 312 h, Application rate 500 g/Ha, evaluated after 13 days, 100=total damage to plant, 0=no damage to plant, read-out: Control of weed species after post-emergence application, AMAPA
Method: as §1, §2, §3

Row | SMILES | pest or weed control at 500 g/ha (Eleusine indica (ELEIN)) | pest or weed control at 500 g/ha [1] | pest or weed control at 500 g/ha (Lolium perenne (LOLPE)) | pest or weed control at 500 g/ha (Setaria faberi (SETFA)) | pest or weed control at 500 g/ha [2] | pest or weed control at 500 g/ha [3] | pest or weed control at 500 g/ha [4] | pest or weed control at 500 g/ha [5] | pest or weed control at 500 g/ha [6]
1 | O=C(O)CS(=O)(=O)CC[n+]1ccc(-c2ncccn2)cn1 [Compound A15] | 70% | 70% | 10% | 50% | 60% | 20% | 10% | 20% | 70%
2 | O=C(O)CSCC[n+]1ccc(-c2cccnn2)cn1 [Compound A18] | 100% | 100% | 70% | 60% | 60% | 90% | 70% | 60% | 100%
3 | CS(=O)(=O)N(CC[n+]1ccc(-c2ncccn2)cn1)CC(=O)O [Compound A19, 2-[methylsulfonyl-[2-(4-pyrimidin-2-ylpyridazin-1-ium-1-yl)ethyl]amino]acetic acid 2,2,2-trifluoroacetate] | 100% | 80% | 30% | 70% | 70% | 90% | 70% | 40% | 100%
4 | O=C(O)CNC(=O)C[n+]1ccc(-c2ccncc2)cn1 [Compound A20] | 60% | 90% | 30% | 70% | 70% | 90% | 70% | 60% | 100%
5 | O=S(=O)([O-])OCCOCC[n+]1ccc(-c2ncccn2)cn1 [Compound A21, 2-[2-(4-pyrimidin-2-ylpyridazin-1-ium-1-yl)ethoxy]ethyl sulfate] | 80% | 90% | 40% | 70% | 70% | 70% | 40% | 80% | 100%
6 | O=C(O)CNC(=O)CC[n+]1ccc(-c2ccncn2)cn1 [Compound A23] | 100% | 90% | 40% | 60% | 100% | 70% | 100% | 60% | 100%
7 | CN(CC(=O)O)C(=O)CC[n+]1ccc(-c2ncccn2)cn1 [Compound A24] | 50% | 90% | 30% | 70% | 100% | 90% | 40% | 40% | 90%
8 | CC(NC(=O)CC[n+]1ccc(-c2ncccn2)cn1)C(=O)O (stereo not drawn) [Compound A25] | 100% | 100% | 70% | 90% | 100% | 100% | 40% | 90% | 100%
9 | O=C(O)CNC(=O)C[n+]1ccc(-c2ccccn2)cn1 [Compound A26] | 80% | 100% | 40% | 80% | 70% | 100% | 40% | 90% | 100%
10 | O=C(O)CNC(=O)CC[n+]1ccc(-c2cccnn2)cn1 [Compound A27] | 60% | 90% | 70% | 100% | 100% | 100% | 40% | 90% | 100%
11 | CN(CC[n+]1ccc(-c2ncccn2)cn1)S(=O)(=O)CC(=O)O [Compound A30, 2-[methyl-[2-(4-pyrimidin-2-ylpyridazin-1-ium-1-yl)ethyl]-sulfamoyl]acetic acid chloride] | 40% | 90% | 50% | 60% | 70% | 80% | 20% | 100% | 100%
12 | CC(=O)N(CC[n+]1ccc(-c2ncccn2)cn1)CC(=O)O [Compound A31] | 60% | 90% | 20% | 60% | 80% | 90% | 50% | 60% | 100%
13 | CC(C)(NC(=O)CC[n+]1ccc(-c2ncccn2)cn1)C(=O)O [Compound A32] | 80% | 80% | 60% | 80% | 80% | 100% | 30% | 70% | 100%
14 | O=C(O)CSC[n+]1ccc(-c2ncccn2)cn1 [Compound A33, 2-[(4-pyrimidin-2-ylpyridazin-1-ium-1-yl)methylsulfanyl]acetic acid 2,2,2-trifluoroacetate] | 100% | 100% | 70% | 90% | 100% | 100% | 40% | 100% | 100%
15 | CN(CC(=O)O)C(=O)C[n+]1ccc(-c2ccccn2)cn1 [Compound A34] | 20% | 50% | 10% | 40% | 20% | 0% | 40% | 30% | 90%
16 | O=C(O)CNC(=O)C[n+]1ccc(-c2cnccn2)cn1 [Compound A35] | 60% | 40% | 0% | 60% | 100% | 40% | 20% | 50% | 70%
17 | CC(C)(CC(=O)O)NC(=O)CC[n+]1ccc(-c2ncccn2)cn1 [Compound A36] | 100% | 90% | 90% | 100% | 100% | 100% | 20% | 40% | 100%
